# Like-named read-outs stand apart in the source and are kept apart here.
# Conditions: in vivo
# [1] = both, human, inhaled or intranasal, 20 mg
# [2] = both, human, inhaled or intranasal, 40 mg
# [3] = both, human, inhaled or intranasal, 60 mg
# 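Further: measured in healthy adult volunteers.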
# Description: 3 cohorts of subjects, in total 34 healthy adult volunteers, were recruited for Part A study.
# Part B was an open label non-randomized crossover in a cohort of 6 evaluable healthy adult volunteers.
smiles,measurement,setting,value
O=C(NCC1CCCCN1)c1cc(OCC(F)(F)F)ccc1OCC(F)(F)F (stereo not shown) [flecainide],elimination t1/2β,"both, human",9 to 12 h
same,Cmax of the two excluded subjects,"both, human, 40 mg",43.5 ng/mL
same,Cmax of the two excluded subjects,"both, human, 60 mg",51.3 ng/mL
same,Tmax in excluded subjects,"both, human, 60 mg",greater than 15 minutes
same,Dist. t1/2α,[1],3.86 (34) min
same,Elim. t1/2β,[1],9.87 (25) hours
same,Dist. t1/2α,[2],4.19 (39) min
same,Elim. t1/2β,[2],9.0 (24) hours
same,Dist. t1/2α,[3],3.47 (17) min
same,Elim. t1/2β,[3],12.0 (14) hours
same,dose dependence of Cmax and AUCLast,human,dose-dependent
same,dose dependence of distribution phase and elimination half-life,human,independent of the doses
same,plasma concentration in subjects with near-equal ΔQRS (12.0 to 16 msec),human,85 ± 40.3 ng/mL
same,Tmax (min after EOI),"human, inhaled or intranasal, 30 mg","0.5 (0, 1) min"
same,plasma concentration in subjects with near-equal ΔQRS (12.0 to 16 msec),"human, iv",222 ± 23 ng/mL
same,Tmax (min after EOI),"human, iv, 2 mg/kg","1 (0, 60) min"
same,dose proportionality of venous plasma concentrations,,near dose proportionality
same,"venous plasma concentration-time curves, inhaled vs IV",2 mg/kg,similar
same,"concentration-time profile curves, IV normalized to 30 mg vs inhaled 30 mg eTLD",iv,near-identical
